Experimental data: patent US10045978B2 (AB SCIENCE, priority 2010, dated 2018)

Tested on: patients with indolent forms of mastocytosis with handicap, D816V absent in at least one infiltrated organ
Experiment: Example 1 phase 2a study, response assessment
Type: in vivo, human
Set-up: Hamilton rating Δ Mean ± SD / QLQ-C30 Symptom Δ Mean ± SD / QLQ-C30 Global Health Δ Mean ± SD / AFIRMM Δ Mean ± SD / Hamilton rating ΔMean ± SD / QLQC30 Symptom ΔMean ± SD / QLQC30 Global Health ΔMean ± SD / AFIRMM ΔMean ± SD: scale not given here
Description: Eligible patients were aged >18 years, had previously documented indolent systemic, smoldering systemic or cutaneous mastocytosis as per the WHO classification with associated disability as the result of mast cell released mediators and had not responded to usual symptomatic treatments for more the 6 months. […] A single occurrence of this criterion was deemed sufficient for inclusion and so no systematic examination of multiple organs was carried out specifically for this study.
Patients were classified as having a handicap if after appropriate symptomatic treatments they fulfilled at least one of the following a priori criteria: number of flushes/day ≥1; pruritus score ≥6; number of stools ≥4/day; micturition frequency ≥8/day; Hamilton rating for depression ≥10; or EORTC quality-of-life questionnaire (QLQ-C30) symptom score, functional score, and global health status of >0. Patients were excluded if they experienced inadequate organ function defined via blood test levels, or an Eastern Cooperative Oncology Group performance status >2. Other exclusion criteria included: life expectancy <6 months, severe or uncontrolled medical disease, and patients who were pregnant or nursing.
In accordance to the AFIRMM study (Hermine O, et al., 2008, PLoS ONE. 3:e2266), evaluation of treatment response was based upon the change of clinical symptoms associated with a patient's handicaps at week 12 (W12) relative to baseline. Primary endpoints were daily frequency of flushes; pruritus score; and Hamilton rating for depression, as well as, daily stool and micturition frequencies; QLQ-C30 global health status, functional, and symptom scores. […] For those patients entering the extension phase, assessments were performed every 4 weeks for the first 3 months of extension, and every 12 weeks thereafter. Secondary endpoints included the W12 assessment of AFIRMM score (a validated questionnaire assessing the self-perceived severity of mastocytosis) (Hermine O, et al., 2008, PLoS ONE. 3:e2266); overall patient assessment (OPA) score; tryptase levels; and change in organ mast cell infiltration. Determination of D816V mutation and serum tryptase levels was conducted following procedures described previously (Hermine O, et al., 2008, PLoS ONE. 3:e2266). Overall clinical response analysis at W12 defined a responder as having an improvement of ≥50% in baseline handicap of a key response endpoint (Hamilton rating, flushes, or pruritus) without deterioration or emergence of handicap. Any patient with deterioration of ≥50% in any handicap, and/or with emergence of a new handicap with an increase of ≥50% from baseline was considered as worsening. Any patient who discontinued the study before W12 was considered a non responder. Discrimination between dose regimens was investigated by analyses of the ‘time to first response’, according to the initial dosage, and ‘dose at time of first response’ in key response endpoints.
Response analysis was performed on subgroups of the ITT population according to a patient's handicap at baseline and for whom response was evaluated at W12; referred to hereafter as the handicap-related population. No data imputation was implemented. The per protocol (PP) population was defined as a subset of a given handicap-related population, which in addition had presented no major protocol deviations. Summary response data are presented using descriptive statistics with mean improvement compared to baseline in each handicap cohort, regardless of disease classification. The appropriate Wilcoxon or Fisher tests were used for group comparison of baseline disease, demographic characteristics between dose level groups and response relative to baseline. Subpopulation analysis was also conducted according to initial c-Kit status.

[1] = W12, Group 1 (no confirmed D816V)
[2] = W12, Group 2 (mixed c-Kit status)
[3] = W12, handicap-related population

Cc1ccc(NC(=O)c2ccc(CN3CCN(C)CC3)cc2)cc1Nc1nc(-c2cccnc2)cs1 [masitinib, 4-(4-methylpiperazin-1-ylmethyl)-N-[4-methyl-3-(4-pyridin-3ylthiazol-2-ylamino)phenyl]benzamide]
skin mast cell infiltration: good partial response (≥50% reduction) (1/14 evaluable patients): 7% | OPA: worsening of health status (1/20 patient at one time point): 5% | skin mast cell infiltration: partial response (1 to 49% reduction) (6/14 evaluable patients): 43% | skin mast cell infiltration: no change (7/14 evaluable patients): 50% | OPA score improvement of at least one point (9/20 patients): 45% | first response events at lower dose level of 4.5 mg/kg/day (48/79 events): 60% | first response events occurring at dose ≤6 mg/kg/day (76/79 events): 96% | first response events: AFIRMM score (Total, all doses): 10 | first response events: Flush (Total, all doses): 17 | first response events: Hamilton (Total, all doses): 10 | first response events: Micturition (Total, all doses): 1 | first response events: OPA score (Total, all doses): 7 | first response events: Pruritus (Total, all doses): 11 | first response events: QLQ30 Functional (Total, all doses): 5 | first response events: QLQ30 Global (Total, all doses): 6 | first response events: QLQ30 Symptom (Total, all doses): 5 | first response events: Stool (Total, all doses): 7 | first response events: Total events (Total, all doses): 79 | QLQ-C30 functional score improvement (W12): 39%±81 | QLQ-C30 global health status improvement (W12): 51%±108 | QLQ-C30 symptom score improvement (W12): 2.5%±69 | clinical response rate: Hamilton rating (W12): 50% | clinical response rate: flushes (W12): 60% | clinical response rate: pruritus (W12): 25% | OPA: impaired health status at baseline reporting none or minimal impairment (W12, 3/20 evaluable patients): 15% | AFIRMM Δ Mean ± SD (W12, All): −61.5 ± 49.6 | Flushes per day Δ Mean ± SD (W12, All): −1.7 ± 1.5 | Hamilton rating Δ Mean ± SD (W12, All): −5.1 ± 4.4 | Micturitions per day Δ Mean ± SD (W12, All): −3.1 ± 3.7 | Pruritus Δ Mean ± SD (W12, All): −3.0 ± 3.4 | QLQ-C30 Functional Δ Mean ± SD (W12, All): 8.7 ± 18.8 | QLQ-C30 Global Health Δ Mean ± SD (W12, All): 12.5 ± 24.7 | QLQ-C30 Symptom Δ Mean ± SD (W12, All): −6.1 ± 13.6 | Stools per day Δ Mean ± SD (W12, All): −1.9 ± 3.6 | AFIRMM Δ Mean ± SD [1]: −63.5 ± 52.9 | Flushes per day Δ Mean ± SD [1]: −2.0 ± 1.6 | Hamilton rating Δ Mean ± SD [1]: −4.6 ± 4.3 | Micturitions per day Δ Mean ± SD [1]: −3.0 ± 2.8 | Pruritus Δ Mean ± SD [1]: −3.5 ± 3.6 | QLQ-C30 Functional Δ Mean ± SD [1]: 8.7 ± 21.0 | QLQ-C30 Global Health Δ Mean ± SD [1]: 14.1 ± 27.0 | QLQ-C30 Symptom Δ Mean ± SD [1]: −5.4 ± 14.7 | Stools per day Δ Mean ± SD [1]: −2.0 ± 4.0 | AFIRMM Δ Mean ± SD [2]: −53.5 ± 38.5 | Flushes per day Δ Mean ± SD [2]: −0.8 ± 0.5 | Hamilton rating Δ Mean ± SD [2]: −10.0 | Micturitions per day Δ Mean ± SD [2]: −3.5 ± 7.8 | Pruritus Δ Mean ± SD [2]: −1.0 ± 2.2 | QLQ-C30 Functional Δ Mean ± SD [2]: 8.6 ± 4.8 | QLQ-C30 Global Health Δ Mean ± SD [2]: 6.3 ± 12.5 | QLQ-C30 Symptom Δ Mean ± SD [2]: −9.5 ± 6.2 | Stools per day Δ Mean ± SD [2]: −1.5 ± 2.1 | overall clinical response (W12, ITT): 14/25 | tryptase level, mean reduction (W12, PP patients with elevated tryptase (>15 ng/mL) at baseline (N=5)): 23% | micturition frequency improvement (W12, PP population): 39%±14 | stool frequency improvement (W12, PP population): 44%±63 | AFIRMM global score improvement (W12, evaluable patients (N=20)): 40%±27 | micturition frequency improvement [3]: 23%±30 | stool frequency improvement [3]: 29%±58 | bone marrow mast cell infiltration (W12, one patient of 15 evaluable, 7% at baseline): 1% | first response events: Cumulative Frequency (at 1.5 mg/kg/day): 0% | first response events: Total events (at 1.5 mg/kg/day): 0 | first response events: AFIRMM score (at 3.0 mg/kg/day): 4 | first response events: Cumulative Frequency (at 3.0 mg/kg/day): 46% | first response events: Flush (at 3.0 mg/kg/day): 9 | first response events: Hamilton (at 3.0 mg/kg/day): 4 | first response events: OPA score (at 3.0 mg/kg/day): 2 | first response events: Pruritus (at 3.0 mg/kg/day): 5 | first response events: QLQ30 Functional (at 3.0 mg/kg/day): 3 | first response events: QLQ30 Global (at 3.0 mg/kg/day): 2 | first response events: QLQ30 Symptom (at 3.0 mg/kg/day): 2 | first response events: Stool (at 3.0 mg/kg/day): 5 | first response events: Total events (at 3.0 mg/kg/day): 36 | first response events: AFIRMM score (at 4.5 mg/kg/day): 1 | first response events: Cumulative Frequency (at 4.5 mg/kg/day): 61% | first response events: Flush (at 4.5 mg/kg/day): 3 | first response events: Hamilton (at 4.5 mg/kg/day): 2 | first response events: Pruritus (at 4.5 mg/kg/day): 2 | first response events: QLQ30 Functional (at 4.5 mg/kg/day): 1 | first response events: QLQ30 Global (at 4.5 mg/kg/day): 2 | first response events: QLQ30 Symptom (at 4.5 mg/kg/day): 1 | first response events: Total events (at 4.5 mg/kg/day): 12
